Experiments:
Orexin receptor type 2 = target: T1, Orexin receptor type 2 (Homo sapiens, UniProt O43614); assay: Antagonist activity at OX2R (unknown origin) by cell-based calcium assay
T1 sequence (O43614 whole entry): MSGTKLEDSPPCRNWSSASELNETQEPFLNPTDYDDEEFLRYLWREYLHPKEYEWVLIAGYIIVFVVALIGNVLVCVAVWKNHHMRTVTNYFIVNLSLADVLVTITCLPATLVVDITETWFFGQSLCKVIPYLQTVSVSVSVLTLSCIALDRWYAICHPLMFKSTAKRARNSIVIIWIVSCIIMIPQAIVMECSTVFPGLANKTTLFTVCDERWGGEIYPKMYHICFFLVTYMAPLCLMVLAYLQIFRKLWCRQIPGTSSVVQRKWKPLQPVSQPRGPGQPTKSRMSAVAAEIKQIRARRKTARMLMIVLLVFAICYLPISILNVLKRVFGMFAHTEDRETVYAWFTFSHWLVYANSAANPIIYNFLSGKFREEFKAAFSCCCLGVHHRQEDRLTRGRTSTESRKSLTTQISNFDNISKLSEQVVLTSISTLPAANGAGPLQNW

[1] = target: T2, Orexin/Hypocretin receptor type 1 (Homo sapiens, UniProt O43613); assay: Antagonist activity at OX1R (unknown origin) by cell-based calcium assay; format: functional
T2 sequence (O43613 whole entry): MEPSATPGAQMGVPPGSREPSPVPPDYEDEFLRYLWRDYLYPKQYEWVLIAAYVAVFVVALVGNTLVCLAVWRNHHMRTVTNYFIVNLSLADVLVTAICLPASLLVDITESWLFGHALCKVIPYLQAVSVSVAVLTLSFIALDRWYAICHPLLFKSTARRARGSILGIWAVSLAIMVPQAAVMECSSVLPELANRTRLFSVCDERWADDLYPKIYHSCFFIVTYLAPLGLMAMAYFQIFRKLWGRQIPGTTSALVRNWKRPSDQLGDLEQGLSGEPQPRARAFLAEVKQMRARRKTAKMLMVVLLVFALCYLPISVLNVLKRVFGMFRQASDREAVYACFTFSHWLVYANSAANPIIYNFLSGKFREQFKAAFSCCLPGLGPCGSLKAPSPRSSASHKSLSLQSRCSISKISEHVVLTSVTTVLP

SMILES | IC50 (Orexin receptor type 2) [nM] | Ki [1] [nM] | Ki (Orexin receptor type 2) [nM]
COc1ccc2c3c1O[C@H]1[C@H](N(C)C(=O)/C=C/c4ccoc4)CC=C4[C@@H](C2)N(S(=O)(=O)c2ccccc2N(C)C)CC[C@]431 | > 10000 | 8.82 | –
COc1ccc2c3c1O[C@H]1[C@H](N(C)C(=O)/C=C/c4ccoc4)CC[C@H]4[C@@H](C2)N(S(=O)(=O)c2ccccc2N(C)C)CC[C@@]341 | > 10000 | 53.5 | –
COc1ccc2c3c1O[C@H]1[C@H](N(C)C(=O)/C=C/c4ccoc4)CC[C@@]4(O)[C@@H](C2)N(S(=O)(=O)c2ccccc2)CC[C@]314 | > 10000 | 16.8 | –
COc1ccc2c3c1O[C@H]1[C@H](N(C)C(=O)/C=C/c4ccoc4)CC[C@@]4(O)[C@@H](C2)N(S(=O)(=O)c2ccccc2N(C)C)CC[C@]314 | – | 4.75 | 1300
COc1ccc2c3c1O[C@H]1[C@H](N(C)C(=O)/C=C/c4ccoc4)CC=C4[C@@H](C2)N(S(=O)(=O)c2ccccc2)CC[C@]431 | > 10000 | 2.34 | –
COc1ccc2c3c1O[C@H]1[C@H](N(C)C(=O)/C=C/c4ccoc4)CC[C@H]4[C@@H](C2)N(S(=O)(=O)c2ccccc2)CC[C@@]341 | > 10000 | 23.6 | –

From ChEMBL document CHEMBL5131444, “Essential structure of orexin 1 receptor antagonist YNT-707: Conversion of the 16-cyclopropylmethyl group to the 16-sulfonamide group in d-nor-nalfurafine derivatives” (Bioorg Med Chem Lett, 2022)
